Data on two compounds can be found in BindingDB's records for doi:10.1016/j.bmcl.2017.07.010 (De Montfort University, 2017).

The data set is described as follows: Inhibition of human CYP1B1 transfected in HEK293 cells assessed as cisplatin EC50 at 6 times IC50 by MTT assay (Rvb = 65 uM). In general terms: Tetrazolium dyes change colour on reduction, which living cells bring about.

On to `COc1ccccc1/C=C/C(=O)c1ccc[nH]1`, for which the concentration giving a half-maximal response (EC50) is 10 µM.

`O=C(/C=C/c1ccccc1Cl)c1ccc[nH]1`: the EC50 was determined as 10 µM.

For orientation: EC50 means the concentration that produces a half-maximal response.
